Data as given in US20120016019A1, “PHARMACEUTICAL COMPOSITION FOR TREATING OR PREVENTING CANCER” (priority 2010, published 2012).
Where “and” joins values, the source holds several entries; their conditions need not be identical. Equal values may be shown once.

Test system: HCC 1419
Assay: XTT cell viability assay, HCC 1419
Details: for The absorbance, Mean value / The absorbance / The absorbance, group - Blank: XTT 500 nm; for The absorbance: single wells
Protocol: Cancer cell lines HCC 1419, MCF-7, MDA-MB-468, SKBR3, PC3, HT1299, Saos-2, C-6, AsPc, MDA-MB-231, RKO, HeLa and TT, and normal cell lines HME 50 HT, BJ and CCD-1074sk were tested for changes in metabolism (XTT assay) and cell death (cell counts).
Cells were plated into 48-well Corning CellBind™ plates at densities of 20,000 cells for normal cells and 10,000˜20,000 cells for cancer cells. 24 to 48 h after plating, cells were treated with the composition according to the invention at concentrations of 4.5e-2M. The first time point treated with the composition of the invention is 0 h. At 3 days after the first treatment with the composition of the invention, medium was changed and the composition of the invention at the same concentrations were added to the cultured cells.
The XTT assay is an accepted analysis technique for viability and cytotoxicity of anticancer drugs or other pharmaceutical compositions. Cells were seeded in a 96-well tissue culture plate at a density of 10,000 cells for normal cells and 5,000 cells for cancer cells. After incubation period, the formazan dye formed was quantitated using an ELISA reader. The optimal wavelength used in experiments was 500 nm, and it was measured at 0 h, 12 h, 24 h, 48 h, 4 d and 7 d, respectively. The obtained values were generated using the software SoftMax Pro 4.8.
The cell viability was calculated according to the manufacturer's instructions as follows (the term “blank” means XTT in medium only):
Cellular cytotoxicity was calculated according to the manufacturer's instructions as follows: […]

[1] = HCC 1419, 1st week (LC50), 24 h
[2] = HCC 1419, 1st week (LC50), 48 h
[3] = HCC 1419, 2nd week (recovery), 0 h
[4] = HCC 1419, 2nd week (recovery), 48 h
[5] = HCC 1419, 2nd week (recovery), 4 d

CC(=O)O[C@H]1C(=O)[C@@]2(C)[C@H]([C@H](OC(=O)c3ccccc3)[C@]3(O)C[C@H](OC(=O)[C@H](O)[C@@H](NC(=O)c4ccccc4)c4ccccc4)C(C)=C1C3(C)C)[C@]1(OC(C)=O)CO[C@@H]1C[C@@H]2O [Taxol]
The absorbance, Mean value (HCC 1419, 1st week (LC50), 0 h): 2.5924
The absorbance (HCC 1419, 1st week (LC50), 0 h): 2.5534 and 2.6558 and 2.5679
The absorbance, group - Blank (HCC 1419, 1st week (LC50), 12 h): 2.0317
The absorbance, Mean value [1]: 2.8401
The absorbance, group - Blank [1]: 2.5035
The absorbance [1]: 2.9427 and 2.856 and 2.7216
The absorbance, Mean value [2]: 3.4706
The absorbance, group - Blank [2]: 3.1340
The absorbance [2]: 3.7945 and 2.9086 and 3.7087
The absorbance, Mean value (HCC 1419, 1st week (LC50), 4 d): 2.6666
The absorbance (HCC 1419, 1st week (LC50), 4 d): 2.6667 and 2.7014 and 2.6316
The absorbance, Mean value (HCC 1419, 1st week (LC50), 7 d): 2.5386
The absorbance (HCC 1419, 1st week (LC50), 7 d): 2.6877 and 2.5421
The absorbance, Mean value [3]: 2.4911
The absorbance [3]: 2.7348
The absorbance (HCC 1419, 2nd week (recovery), 24 h): 2.4388
The absorbance, Mean value [4]: 2.6525
The absorbance, group - Blank [4]: 2.4436
The absorbance [4]: 2.6611 and 2.6375 and 2.6588
The absorbance, Mean value [5]: 2.6058
The absorbance [5]: 2.7024 and 2.5033 and 2.6116
The viability (HCC 1419, XTT, 1/100 of %, 2nd week (recovery), 48 h): 0.8937
The viability (human, 12 h, 220 nM): 0.7658
The viability (human, 48 h, 220 nM): 1.1461
The viability (human, 7 d, 220 nM): 0.9883
